Experimental data published in patent US12422437B2, “Methods of screening for condensate-associated specificity and uses thereof” (Dewpoint Therapeutics, Inc., priority 2019, dated 2025).

Experiments:
Format in all cases: cell-based, human
[1] = system: stress granules (FUS, eIF3, G3BP1) in HeLa Kyoto, HeLa BAC FUS-GFP and iPS FUS-GFP cells; experiment: Screen for compounds altering FUS, eIF3 and G3BP1 levels in stress granules of arsenate-stressed cells (Example 1); details: compound 1 μM, 5 μM or 25 μM for one hour, then 2 mM Potassium Arsenate 1 hour; confocal fluorescence imaging; FIGS. 1-4
From the text: Stress granules are condensates that form in the cytoplasm of cells under stress. Multiple proteins are known to be concentrated in stress granules, including FUS, eukaryotic initiation factor 3 (eIF3), and G3BP1. FUS is involved in pre-mRNA maturation, and various mutations in FUS have been associated with ALS. Although FUS is found in stress granules, it is not believed to be critical for formation of stress granules. Like FUS, eIF3 is also not believed to be critical for formation of stress granules. As the name indicates, eIF3 is a eukaryotic initiation factor, but it is also involved in translational recycling. By contrast, G3BP1 is believed to initiate formation of stress granules and is potentially critical to maintaining their structure. G3BP1 is an RNA binding protein and an element of the Ras signaling transduction pathway. These three proteins were tracked within cells to determine if compounds could preferentially exclude one of these proteins from stress granules without dissolving the stress granule.
(§1) Three cell lines (HeLa Kyoto, HeLa comprising a bacterial artificial chromosome (BAC) encoding FUS-GFP, and induced pluripotent stem cells (iPS) expressing FUS-GFP) were separately grown in culture. 1200 compounds from a compound library were exposed individually at concentrations of 1 μM, 5 μM, or 25 μM to one of the cell lines for one hour. For some compounds, this procedure was repeated for one or both of the other cell lines. Cells that were not exposed to the compounds (DMSO-only vehicle treatment) were used as controls. The cells were then exposed to arsenate stress for 1 hour to stimulate the formation of stress granules, using a final concentration of 2 mM Potassium Arsenate (Sigma A6631, diluted in PBS).
(§2) After stress treatment, the cells were fixed with a final concentration of 3.7% Formaldehyde (FA) for 15 minutes at room temperature. Subsequently, cells were washed using a plate washer, permeabilized (10 min at RT using 0.1% Triton X/PBS) and blocked (30 min with 0.2% Fish skin gelatin/PBS). For cells expressing FUS-GFP, GFP fluorescence was observed directly. For the other protein markers of interest a combination of anti-FUS (Sigma AMAb90549; 1:500), anti-eIF3 (Santa Cruz sc-137214; 1:500), and anti-G3BP1 (Invitrogen PA5-29455; 1:4000) antibodies and appropriate secondary antibodies (Life Technologies; Alexa 594 and 647) was applied to visualize FUS, eIF3, and G3BP1 protein in the cells.
(§3) A spinning disk confocal microscope was used to acquire images of the samples using confocal fluorescence at 405/488/561/640 nm. 40× air objective lenses were used to capture the images. The gain was set to 1.4 and binning to 1. The exposure times were adjusted to the fluorescence emission intensity specific for each label. Exposure times ranged from 100-300 ms. Appropriate filter settings were used, matching the excitation and emission spectra of the label. Image acquisition was automated, and the resulting data were analyzed using KNIME (Berthold et al., 2008, Data Analysis, Machine Learning and Applications. Studies in Classification, Data Analysis, and Knowledge Organization. Springer, Berlin, Heidelberg) and CellProfiler (Carpenter et al., 2006, Genome Biol 7:R100). Twenty-five imaging parameters were extracted for each image, including marker signal droplet count, area, shape, etc. For each imaging parameter, the Z′ factor for the entire plate was calculated according to the following formula: Z′=1−[3*(SD(pos)+SD(neg))/(Avg(pos)−Avg(neg))] where SD(pos) is the standard deviation of the positive control, SD(neg) is the standard deviation of the negative control, Avg(pos) is the average of the positive control and Avg(neg) is the average of the negative control.
In addition, z-scores were calculated for every test compound using the formula: z=(x−x)/S where x is the mean of the sample, and S is the standard deviation of the sample. […] Results

[2] = system: stress granules (FUS, eIF3, G3BP1) in HeLa Kyoto, HeLa BAC FUS-GFP and iPS FUS-GFP cells; experiment: Screen for macromolecule and tissue specificity on stress granules of arsenate-stressed cells (Example 2); details: compound 1 μM, 5 μM or 25 μM for one hour, then 2 mM Potassium Arsenate 1 hour; confocal fluorescence imaging; FIGS. 5-10
Description: as §1, with “In brief, three” for “Three”, “lines. […]” for “lines.”
as §2
as §3, with “40× (primary screen) and 20× (potency testing)” for “40×”, “Heidelberg),” for “Heidelberg) and”, “7:R100); or, for potency testing, data were analyzed using Harmony (PerkinElmer, Waltham MA) and Vault (Collaborative Drug Discovery, Burlingame CA).” for “7:R100).”
In addition, z-scores were calculated for every test compound using the formula: z=(x−x)/S where x is the mean of the sample, and S is the standard deviation of the sample.

[3] = system: stress granules of stressed HeLa cells carrying BAC FUS-GFP; experiment: Dose-response / potency testing for FUS, eIF3 and G3BP1 in stress granules (FIG. 11); details: 0.0021-30 μM, number of cytoplasmic drops per cell, four parameter logistic fit
From the text: FIG. 11 is a plot of dose-response curves for FUS, eIF3, and G3BP1 in stress granules of stressed HeLa cells carrying BAC FUS-GFP treated with YM155.
The methods used in this example were similar to those discussed in Example 1. In brief, three cell lines (HeLa Kyoto, HeLa comprising a bacterial artificial chromosome (BAC) encoding FUS-GFP, and induced pluripotent stem cells (iPS) expressing FUS-GFP) were separately grown in culture. 1200 compounds from a compound library were exposed individually at concentrations of 1 μM, 5 μM, or 25 μM to one of the cell lines for one hour. For some compounds, this procedure was repeated for one or both of the other cell lines. […]
A spinning disk confocal microscope was used to acquire images of the samples using confocal fluorescence at 405/488/561/640 nm. […] The exposure times were adjusted to the fluorescence emission intensity specific for each label. […] Image acquisition was automated, and the resulting data were analyzed using KNIME (Berthold et al., 2008, Data Analysis, Machine Learning and Applications. Studies in Classification, Data Analysis, and Knowledge Organization. Springer, Berlin, Heidelberg), CellProfiler (Carpenter et al., 2006, Genome Biol 7:R100); or, for potency testing, data were analyzed using Harmony (PerkinElmer, Waltham MA) and Vault (Collaborative Drug Discovery, Burlingame CA). […]

Row | Compound | Selective and Non-Selective Condensate Disrupters (selectivity of exclusion of FUS, eIF3, G3BP1 from stress granules) [1] | Selectivity (Selective and Non-Selective Condensate Disrupters) [2] | potency (similar to IC50) for exclusion of a specific protein from stress granules relative to others [3]
1 | COc1cc(N2CCC(N)CC2)ccc1Nc1ncc(Cl)c(-c2c[nH]c3ccccc23)n1 [AZD3463] | FUS-selective |  | 
2 | COc1cc(CCc2cc(NC(=O)c3ccc(N4C[C@@H](C)N[C@@H](C)C4)cc3)n[nH]2)cc(OC)c1 [AZD4547] | Non-selective |  | 
3 | CNC(=O)CN1CCC(Oc2cc3c(Nc4cccc(Cl)c4F)ncnc3cc2OC)CC1 [AZD8931] | eIF3-selective |  | 
4 | CC1(C)CCC2=C(O1)c1ccccc1C(=O)C2=O [Beta-Lapachone] | eIF3-selective | eIF3-selective | 
5 | Cn1cc(C2=C(c3cn(CCCSC(=N)N)c4ccccc34)C(=O)NC2=O)c2ccccc21 [Bisindolylmaleimide IX] |  | eIF3-selective | 
6 | C[C@H]1CCC/C=C/[C@@H]2C[C@H](O)C[C@H]2[C@H](O)/C=C/C(=O)O1 [Brefeldin A] | FUS-selective |  | 
7 | COc1cc2c(Oc3ccc4[nH]c(C)cc4c3F)ncnc2cc1OCCCN1CCCC1 [Cediranib] |  | eIF3 and FUS- selective | 
8 | Cc1cc2cc3ccc(N(C)C)cc3nc2cc1N [Coriphosphine O] |  | FUS-selective | 
9 | O=C(O)CCc1ccc(NCc2cccc(Oc3ccccc3)c2)cc1 [GW9508] | FUS-selective |  | 
10 | O=C(c1ccc(F)cc1)C1CCN(CCn2c(=O)[nH]c3ccccc3c2=O)CC1 [Ketanserin] | FUS-selective |  | 
11 | NC(=O)CCCCC1CCSS1 (stereo not drawn) [Lipoamide] | Non-selective | Non-selective | 
12 | Cc1ccc(NC(=O)c2ccc(CN3CCN(C)CC3)cc2)cc1Nc1nc(-c2cccnc2)cs1 [Masitinib] |  | FUS protein and iPSC cell selective | 
13 | COc1ncc(-c2ccc3nccc(-c4ccnnc4)c3c2)cc1NS(=O)(=O)c1ccc(F)cc1F [Omipalisib] | Non-selective |  | 
14 | COc1ccc(-c2cc3c(C)nc(N)nc3n(C3CCC(OCCO)CC3)c2=O)cn1 (stereo not drawn) [PF-04691502] |  | Non-selective | 
15 | Cc1cnc(Nc2ccc(N3CCN(C)CC3)cc2)nc1Nc1cccc(S(=O)(=O)NC(C)(C)C)c1 [TG101209] | Non-selective | Non-selective | 
16 | COCCn1c2c([n+](Cc3cnccn3)c1C)C(=O)c1ccccc1C2=O.[Br-] [YM155 (Sepantronium Bromide), Sepantronium Bromide] | eIF3-selective | eIF3-selective | exclusion of eIF3 at lower concentration of compound relative to FUS and G3BP1
